The results in this text go back to US8642837B2, “Method to increase pathogen resistance in plants” (Expressive Research B.V., priority 2004, dated 2014).

For this assay, the system named is callose deposition. Nature of the assay: Callose deposition in plants tested with Peronospora parasitica. It counts as in vivo, Arabidopsis. The conditions noted are these: treatment with BABA, positive control.

With `CC(N)CC(=O)O` (stereo not drawn) [BABA, β-aminobutyric acid], the callose deposition is recorded as “increased”.
